Test results published in ChEMBL document CHEMBL2417363, “Identification of quinazolinyloxy biaryl urea as a new class of SUMO activating enzyme 1 inhibitors” (Bioorg Med Chem Lett, 2013).
The source made the active and inactive calls. The rule behind the calls is not given here.

Assays:
[1] = Octanol-water partition coefficient, log P of the compound; type: physicochemical
[2] = biological target: T1, SUMO-activating enzyme (Homo sapiens, UniProt Q9UBT2); assay: Inhibition of SUMO E1 (unknown origin) assessed as SUMO E1-SUMO thioester bond formation; type: protein-complex assay
[3] = Permeability across human Caco2 cells; type: ADME, cell-based; conditions: Caco-2, read-out: permeability
[4] = biological target: T2, SUMO-activating enzyme (Homo sapiens) (UniProt Q9UBE0+Q9UBT2); assay: Inhibition of SUMO E1 (unknown origin)-mediated RanGAP1 sumoylation at 100 uM by immunoblotting analysis; type: protein-complex assay
[5] = biological target: T2, SUMO-activating enzyme (Homo sapiens); assay: (§1) Inhibition of SUMO E1 (unknown origin)-mediated RanGAP1 sumoylation by immunoblotting analysis; type: protein-complex assay
[6] = biological target: T1, SUMO-activating enzyme; assay: as §1; type: protein-complex assay
[7] = biological target: T2, SUMO-activating enzyme (Homo sapiens); assay: Inhibition of SUMO E1 (unknown origin)-biotinylated SUMO-1 thioester complex formation at 10 uM after 20 mins by SDS-PAGE analysis in presence of ATP; type: protein-complex assay
[8] = biological target: T2, SUMO-activating enzyme (Homo sapiens); assay: Inhibition of SUMO E1 (unknown origin)-mediated RanGAP1 sumoylation at < 30 uM by immunoblotting analysis; type: protein-complex assay

T1 sequence (Q9UBE0 whole entry): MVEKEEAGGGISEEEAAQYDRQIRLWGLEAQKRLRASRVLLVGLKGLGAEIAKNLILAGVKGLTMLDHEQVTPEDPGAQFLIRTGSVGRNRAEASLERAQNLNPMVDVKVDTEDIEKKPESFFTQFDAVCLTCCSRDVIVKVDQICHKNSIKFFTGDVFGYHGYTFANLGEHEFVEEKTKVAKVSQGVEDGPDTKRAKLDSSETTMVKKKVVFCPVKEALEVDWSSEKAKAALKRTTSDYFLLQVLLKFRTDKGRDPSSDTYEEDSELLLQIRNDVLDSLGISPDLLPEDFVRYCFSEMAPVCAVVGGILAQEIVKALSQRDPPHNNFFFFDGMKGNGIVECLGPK
T1 sequence (Q9UBT2 whole entry): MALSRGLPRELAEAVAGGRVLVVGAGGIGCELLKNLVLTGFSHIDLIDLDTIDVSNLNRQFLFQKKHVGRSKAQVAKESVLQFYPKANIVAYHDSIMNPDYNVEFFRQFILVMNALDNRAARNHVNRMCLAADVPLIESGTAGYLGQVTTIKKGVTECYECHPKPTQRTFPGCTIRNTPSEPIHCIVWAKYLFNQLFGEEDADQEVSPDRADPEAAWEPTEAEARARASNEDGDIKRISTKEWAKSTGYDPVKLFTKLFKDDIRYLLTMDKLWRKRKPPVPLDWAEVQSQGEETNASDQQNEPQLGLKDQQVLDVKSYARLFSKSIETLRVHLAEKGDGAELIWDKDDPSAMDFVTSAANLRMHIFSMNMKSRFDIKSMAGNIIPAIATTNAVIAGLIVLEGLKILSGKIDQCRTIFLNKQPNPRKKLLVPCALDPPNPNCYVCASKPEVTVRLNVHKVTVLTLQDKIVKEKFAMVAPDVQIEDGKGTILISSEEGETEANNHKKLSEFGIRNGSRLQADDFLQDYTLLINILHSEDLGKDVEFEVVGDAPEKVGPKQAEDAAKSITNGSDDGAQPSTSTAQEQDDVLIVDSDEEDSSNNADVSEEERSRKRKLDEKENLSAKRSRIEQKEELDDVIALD

logP [1]	IC50 [2] [µM]	Papp [3] [×10⁻⁶ cm/s]	inhibition [4]	inhibition [5]	IC50 [6] [µM]	inhibition [7]	inhibition [8]	SMILES
4.8	14.4	35.4	–	–	–	–	–	Cc1cccc(NC(=O)Nc2ccc(Cc3ccc(NC(=O)Nc4cccc(C)c4)cc3)cc2)c1
–	–	–	Active	Dose-dependent effect	35.4	–	–	O=C(Nc1ccc(OCc2ccccc2)cc1)Nc1ccc(Oc2ncnc3cc(Cl)ccc23)nc1
4.4	11.7	35.3	–	–	–	–	–	COc1ccc(NC(=O)Nc2ccc(Cc3ccc(NC(=O)Nc4ccc(OC)cc4)cc3)cc2)cc1
2.8	11.1	1.52	–	–	–	–	–	N#Cc1ccc(NC(=O)Nc2ccc(Cc3ccc(NC(=O)Nc4ccc(C#N)cc4)cc3)cc2)cc1
–	–	–	Active	Dose-dependent effect	73	–	–	O=C(Nc1ccc(F)cc1)Nc1ccc(Oc2ncnc3cc(Cl)ccc23)nc1
–	–	–	–	–	–	Active	–	CCCCCC/C=C\CCCCCCCc1cccc(O)c1C(=O)O
4.5	–	66.2	Active	Dose-dependent effect	35.6	–	inactive	O=C(Nc1ccc(Oc2ncnc3cc(Cl)ccc23)nc1)Nc1cccc(C(F)(F)F)c1
–	–	–	Active	Dose-dependent effect	13.4	Active	–	COc1ccc(NC(=O)Nc2ccc(Oc3ncnc4cc(Cl)ccc34)nc2)cc1OC1CCCC1
–	–	–	Active	Dose-dependent effect	57.3	–	–	O=C(Nc1ccccc1)Nc1ccc(Oc2ncnc3cc(Cl)ccc23)nc1
